Assay results as given in the NIST ThermoML archive (doi:10.1021/je300134c).
± gives the expanded uncertainty stated by the source.

Test: xn = mol fraction of the nth substance listed
Conditions: 101 kPa, Liquid; for speed of sound: Sing-around technique in a fixed-path interferometer; for mass density: Vibrating tube method

CCCC[N+]1(C)CCCC1.O=S(=O)([O-])C(F)(F)F [1-butyl-1-methylpyrrolidinium trifluoromethanesulfonate] + O
Conditions	mass density [kg/m3]	speed of sound [m/s]
278.15 K, x1 = 0.04996	1113.86 ± 0.09	1595.9 ± 0.79
278.15 K, x1 = 0.1	1163.55 ± 0.11	1607.6 ± 0.8
278.15 K, x1 = 0.1507	1190.82 ± 0.12	1602.9 ± 0.81
278.15 K, x1 = 0.1999	1208.34 ± 0.14	1594.2 ± 0.82
278.15 K, x1 = 0.2996	1229.14 ± 0.16	1574.1 ± 0.85
278.15 K, x1 = 0.3986	1240.96 ± 0.19	1557 ± 0.89
278.15 K, x1 = 0.4982	1248.7 ± 0.22	1543.7 ± 0.93
278.15 K, x1 = 0.5996	1254.27 ± 0.26	1533.2 ± 0.99
278.15 K, x1 = 0.6993	1258.35 ± 0.3	1525.3 ± 1
278.15 K, x1 = 0.8017	1261.86 ± 0.35	1519.6 ± 1.1
278.15 K, x1 = 0.8993	1264.45 ± 0.4	1514 ± 1.2
278.15 K, x1 = 1	1267.23 ± 0.45	1513.5 ± 1.2
288.15 K, x1 = 0.04996	1108.53 ± 0.08	1594.7 ± 0.79
288.15 K, x1 = 0.1	1156.83 ± 0.1	1596.2 ± 0.8
288.15 K, x1 = 0.1507	1183.59 ± 0.12	1586 ± 0.81
288.15 K, x1 = 0.1999	1200.79 ± 0.13	1574.4 ± 0.82
288.15 K, x1 = 0.2996	1221.49 ± 0.16	1551.6 ± 0.84
288.15 K, x1 = 0.3986	1233.35 ± 0.18	1533.7 ± 0.88
288.15 K, x1 = 0.4982	1241.17 ± 0.22	1520 ± 0.93
288.15 K, x1 = 0.5996	1246.83 ± 0.25	1509.2 ± 0.98
288.15 K, x1 = 0.6993	1251.01 ± 0.29	1501 ± 1
288.15 K, x1 = 0.8017	1254.33 ± 0.34	1494.5 ± 1.1
288.15 K, x1 = 0.8993	1256.9 ± 0.39	1488.9 ± 1.2
288.15 K, x1 = 1	1259.74 ± 0.45	1486.1 ± 1.2
298.15 K, x1 = 0.04996	1102.75 ± 0.08	1590.4 ± 0.79
298.15 K, x1 = 0.1	1149.85 ± 0.1	1582.6 ± 0.79
298.15 K, x1 = 0.1507	1176.19 ± 0.12	1567.8 ± 0.8
298.15 K, x1 = 0.1999	1193.14 ± 0.13	1553.8 ± 0.81
298.15 K, x1 = 0.2996	1213.77 ± 0.15	1529 ± 0.84
298.15 K, x1 = 0.3986	1225.71 ± 0.18	1510.6 ± 0.87
298.15 K, x1 = 0.4982	1233.63 ± 0.21	1496.6 ± 0.92
298.15 K, x1 = 0.5996	1239.37 ± 0.25	1485.8 ± 0.97
298.15 K, x1 = 0.6993	1243.63 ± 0.29	1477.5 ± 1
298.15 K, x1 = 0.8017	1247.06 ± 0.33	1470.7 ± 1.1
298.15 K, x1 = 0.8993	1249.64 ± 0.38	1465 ± 1.2
298.15 K, x1 = 1	1252.26 ± 0.44	1461.4 ± 1.2
308.15 K, x1 = 0.04996	1096.56 ± 0.08	1583 ± 0.78
308.15 K, x1 = 0.1	1142.62 ± 0.1	1567 ± 0.79
308.15 K, x1 = 0.1507	1168.56 ± 0.11	1548.5 ± 0.79
308.15 K, x1 = 0.1999	1185.37 ± 0.13	1532.4 ± 0.8
308.15 K, x1 = 0.2996	1206 ± 0.15	1506.2 ± 0.83
308.15 K, x1 = 0.3986	1218.04 ± 0.18	1487.4 ± 0.87
308.15 K, x1 = 0.4982	1226.07 ± 0.21	1473.4 ± 0.91
308.15 K, x1 = 0.5996	1231.92 ± 0.24	1462.6 ± 0.96
308.15 K, x1 = 0.6993	1236.25 ± 0.28	1454.5 ± 1
308.15 K, x1 = 0.8017	1239.76 ± 0.33	1447.4 ± 1.1
308.15 K, x1 = 0.8993	1242.39 ± 0.38	1442 ± 1.2
308.15 K, x1 = 1	1245.09 ± 0.43	1437.8 ± 1.2
318.15 K, x1 = 0.04996	1089.97 ± 0.08	1572.9 ± 0.78
318.15 K, x1 = 0.1	1135.15 ± 0.09	1549.7 ± 0.78
318.15 K, x1 = 0.1507	1160.74 ± 0.11	1528 ± 0.79
318.15 K, x1 = 0.1999	1177.49 ± 0.12	1510.4 ± 0.79
318.15 K, x1 = 0.2996	1198.16 ± 0.15	1483.1 ± 0.82
318.15 K, x1 = 0.3986	1210.34 ± 0.17	1464.2 ± 0.86
318.15 K, x1 = 0.4982	1218.51 ± 0.2	1450.3 ± 0.9
318.15 K, x1 = 0.5996	1224.48 ± 0.24	1439.7 ± 0.96
318.15 K, x1 = 0.6993	1228.9 ± 0.28	1431.7 ± 1
318.15 K, x1 = 0.8017	1232.49 ± 0.32	1424.7 ± 1.1
318.15 K, x1 = 0.8993	1235.16 ± 0.37	1419.4 ± 1.1
318.15 K, x1 = 1	1237.94 ± 0.43	1414.9 ± 1.2
328.15 K, x1 = 0.04996	1083.01 ± 0.07	1560.3 ± 0.77
328.15 K, x1 = 0.1	1127.45 ± 0.09	1530.8 ± 0.77
328.15 K, x1 = 0.1507	1152.76 ± 0.11	1506.4 ± 0.78
328.15 K, x1 = 0.1999	1169.5 ± 0.12	1487.7 ± 0.79
328.15 K, x1 = 0.2996	1190.27 ± 0.14	1459.7 ± 0.81
328.15 K, x1 = 0.3986	1202.62 ± 0.17	1441 ± 0.85
328.15 K, x1 = 0.4982	1210.95 ± 0.2	1427.3 ± 0.9
328.15 K, x1 = 0.5996	1217.05 ± 0.23	1417 ± 0.95
328.15 K, x1 = 0.6993	1221.57 ± 0.27	1409.2 ± 1
328.15 K, x1 = 0.8017	1225.24 ± 0.32	1402.3 ± 1.1
328.15 K, x1 = 0.8993	1227.97 ± 0.37	1397.3 ± 1.1
328.15 K, x1 = 1	1230.81 ± 0.42	1392.7 ± 1.2
338.15 K, x1 = 0.04996	1075.72 ± 0.07	1545.4 ± 0.77
338.15 K, x1 = 0.1	1119.53 ± 0.09	1510.5 ± 0.77
338.15 K, x1 = 0.1507	1144.53 ± 0.1	1484 ± 0.77
338.15 K, x1 = 0.1999	1161.26 ± 0.12	1464.5 ± 0.78
338.15 K, x1 = 0.2996	1182.3 ± 0.14	1436.3 ± 0.8
338.15 K, x1 = 0.3986	1194.89 ± 0.17	1418 ± 0.84
338.15 K, x1 = 0.4982	1203.39 ± 0.2	1404.5 ± 0.89
338.15 K, x1 = 0.5996	1209.64 ± 0.23	1394.5 ± 0.95
338.15 K, x1 = 0.6993	1214.26 ± 0.27	1387 ± 1
338.15 K, x1 = 0.8017	1218.03 ± 0.31	1380.4 ± 1.1
338.15 K, x1 = 0.8993	1220.81 ± 0.36	1375.5 ± 1.1
338.15 K, x1 = 1	1223.73 ± 0.41	1371.1 ± 1.2
